Reference: patent US20080293712A1, “Benzo[C][2,7]Naphtyridine Derivatives, Methods of Making Thereof and Methods of Use Thereof” (WYETH, priority 2007, published 2008)

biological target: T1, PDK-1 (Homo sapiens, UniProt O15530); assay: PDK-1 kinase inhibition ELISA assay (phosphorylation of His6-tagged SGK1 S422D by PDK-1); assay type: biochemical; settings: not given
T1 sequence (O15530 1-556): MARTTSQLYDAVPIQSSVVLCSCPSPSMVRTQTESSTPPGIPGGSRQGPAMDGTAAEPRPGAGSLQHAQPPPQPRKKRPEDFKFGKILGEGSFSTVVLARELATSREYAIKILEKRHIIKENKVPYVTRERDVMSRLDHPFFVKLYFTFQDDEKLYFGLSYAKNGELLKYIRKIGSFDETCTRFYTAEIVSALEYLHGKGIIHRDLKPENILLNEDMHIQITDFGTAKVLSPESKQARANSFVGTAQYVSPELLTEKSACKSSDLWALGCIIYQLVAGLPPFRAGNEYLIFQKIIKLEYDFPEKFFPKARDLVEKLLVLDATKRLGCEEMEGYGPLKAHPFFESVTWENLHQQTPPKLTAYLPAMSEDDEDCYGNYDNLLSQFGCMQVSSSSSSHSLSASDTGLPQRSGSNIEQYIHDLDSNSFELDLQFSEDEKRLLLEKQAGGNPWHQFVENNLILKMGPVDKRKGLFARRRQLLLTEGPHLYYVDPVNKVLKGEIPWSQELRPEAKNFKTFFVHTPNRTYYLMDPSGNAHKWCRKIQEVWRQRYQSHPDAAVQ

| SMILES | IC50 [nM] |
| --- | --- |
| COCCOc1cc2ncc3c(N)nc(N(C)C)cc3c2cc1OC [Ia-60, 9-Methoxy-8-(2-methoxyethoxy)-N^2,N^2-dimethylbenzo[c]-2,7-naphthyridine-2,4-diamine] | 739 |
| COc1ccccc1Nc1cncc(-c2cc3c(cnc4cc(OC)c(OC)cc43)c(N)n2)c1 [Ib-181, 8,9-dimethoxy-2-{5-[(2-methoxyphenyl)amino]pyridin-3-yl}benzo[c][2,7]naphthyridin-4-amine] | 73.7 |

same assay, conditions: PDK-1 ELISA, Table 11; read-out: Average IC50

| SMILES | IC50 [nM] |
| --- | --- |
| COc1cc2ncc3c(N)nc(-c4cncc(OC[C@@H](N)Cn5ccnc5)c4)cc3c2cc1OC [Ib-9, 2-(5-{[(2S)-2-amino-3-(1H-imidazol-1-yl)propyl]oxy}pyridin-3-yl)-8,9-dimethoxybenzo[c]-2,7-naphthyridin-4-amine] | 20 |
| COc1cc2ncc3c(N)nc(-c4cncc(OC[C@@H](N)CNc5ccc(C)c(F)c5)c4)cc3c2cc1OC [Ib-81, (2S)-3-{[5-(4-amino-8,9-dimethoxybenzo[c][2,7]naphthyridin-2-yl)pyridin-3-yl]oxy}-N1-(3-fluoro-4-methylphenyl)propane-1,2-diamine] | 22 |
| COc1cc2ncc3c(N)nc(-c4cncc(OC[C@@H](N)COc5nc6ccccc6s5)c4)cc3c2cc1OC [Ib-150, 2-(5-{[(2R)-2-amino-3-(1,3-benzothiazol-2-yloxy)propyl]oxy}pyridin-3-yl)-8,9-dimethoxybenzo[c][2,7]naphthyridin-4-amine] | 6 |
| COc1cc2ncc3c(N)nc(-c4cncc(OC[C@@H](N)CSc5nccs5)c4)cc3c2cc1OC [Ib-166, 2-(5-{[(2R)-2-amino-3-(1,3-thiazol-2-ylthio)propyl]oxy}pyridin-3-yl)-8,9-dimethoxybenzo[c][2,7]naphthyridin-4-amine] | 3 |
| COc1ccc(-c2cc3c(cnc4cc(OC)c(OC)cc43)c(N)n2)cn1 [Ib-237, 8,9-dimethoxy-2-(6-methoxypyridin-3-yl)benzo[c][2,7]naphthyridin-4-amine] | 50 |
| COc1cc2ncc3c(N)nc(-c4cncc(OC[C@@H](N)COc5nccc6ccccc56)c4)cc3c2cc1OC [Ib-147, 2-(5-{[(2R)-2-amino-3-(isoquinolin-1-yloxy)propyl]oxy}pyridin-3-yl)-8,9-dimethoxybenzo[c][2,7]naphthyridin-4-amine] | 10 |
| COc1cc2ncc3c(N)nc(-c4cncc(OC[C@@H](N)CN(C)Cc5cccc(F)c5)c4)cc3c2cc1OC [Ib-8, (2S)-3-{[5-(4-amino-8,9-dimethoxybenzo[c]-2,7-naphthyridin-2-yl)pyridin-3-yl]oxy}-N1-(3-fluorobenzyl)-N1-methylpropane-1,2-diamine] | 5 |
| COc1cc2ncc3c(N)nc(-c4cncc(OC[C@@H](N)CNCC5(c6ccccc6)CCCC5)c4)cc3c2cc1OC [Ib-105, (2S)-3-{[5-(4-amino-8,9-dimethoxybenzo[c][2,7]naphthyridin-2-yl)pyridin-3-yl]oxy}-N1-[(1-phenylcyclopentyl)methyl]propane-1,2-diamine] | 41 |
| CCCCN(C[C@H](N)COc1cncc(-c2cc3c(cnc4cc(OC)c(OC)cc43)c(N)n2)c1)S(=O)(=O)c1ccccc1 [Ib-77, N-[(2S)-2-amino-3-{[5-(4-amino-8,9-dimethoxybenzo[c][2,7]naphthyridin-2-yl)pyridin-3-yl]oxy}propyl]-N-butylbenzenesulfonamide] | 21 |
| COc1cc2ncc3c(N)nc(-c4cncc(Br)c4)cc3c2cc1OC [Ib-15, 2-(5-bromopyridin-3-yl)-8,9-dimethoxybenzo[c]-2,7-naphthyridin-4-amine] | 66 |
| COCCOc1cc2ncc3c(N)nc(N(C)C(C)C)cc3c2cc1OC [Ia-45, N^2-isopropyl-9-methoxy-8-(2-methoxyethoxy)-N^2-methylbenzo[c]-2,7-naphthyridine-2,4-diamine] | 1430 |
| COc1cc2ncc3c(N)nc(-c4cncc(Nc5ccccn5)c4)cc3c2cc1OC [Ib-199, 8,9-dimethoxy-2-[5-(pyridin-2-ylamino)pyridin-3-yl]benzo[c][2,7]naphthyridin-4-Amine] | 476 |
| COc1cc2ncc3c(N)nc(-c4cncc(OC[C@@H](N)CNC5CCCC5)c4)cc3c2cc1OC [Ib-101, (2S)-3-{[5-(4-amino-8,9-dimethoxybenzo[c][2,7]naphthyridin-2-yl)pyridin-3-yl]oxy}-N1-cyclopentylpropane-1,2-diamine] | 92 |
| COc1cc2ncc3c(NO)nc(-c4cncc(OC[C@@H](N)Cc5c[nH]c6ccccc56)c4)cc3c2cc1OC [Compound I-1, 2-(5-{[(2S)-2-amino-3-(1H-indol-3-yl)propyl]oxy}pyridin-3-yl)-N-hydroxy-8,9-dimethoxybenzo[c]-2,7-naphthyridin-4-amine] | 80 |
| COc1cc2ncc3c(N)nc(-c4ccc(F)c(F)c4)cc3c2cc1OC [Ib-240, 2-(3,4-difluorophenyl)-8,9-dimethoxybenzo[c][2,7]naphthyridin-4-amine] | 998 |
| COc1cc2ncc3c(N)nc(-c4cncc(OC[C@@H](Cc5ccccc5)NC=O)c4)cc3c2cc1OC [Ib-16, N-((1R)-2-{[5-(4-amino-8,9-dimethoxybenzo[c]-2,7-naphthyridin-2-yl)pyridin-3-yl]oxy}-1-benzylethyl)formamide] | 38 |

| SMILES | IC50 [nM] |
| --- | --- |
| CCOC1(OCC)CCN(C[C@H](N)COc2cncc(-c3cc4c(cnc5cc(OC)c(OC)cc54)c(N)n3)c2)CC1 [Ib-5, 2-(5-{[(2S)-2-amino-3-(4,4-diethoxypiperidin-1-yl)propyl]oxy}pyridin-3-yl)-8,9-dimethoxybenzo[c]-2,7-naphthyridin-4-amine] | 26 |
| COc1cc2ncc3c(N)nc(N4CC[C@H](N(C)C)C4)cc3c2cc1OC [Ib-67, 2-[(3S)-3-(dimethylamino)pyrrolidin-1-yl]-8,9-dimethoxybenzo[c]-2,7-naphthyridin-4-amine] | 9640 |
| COCCOc1cc2ncc3c(N)nc(N4CCOCC4)cc3c2cc1OC [Ia-57, 9-Methoxy-8-(2-methoxyethoxy)-2-morpholin-4-ylbenzo[c]-2,7-naphthyridin-4-amine] | 6420 |
| COc1cc2ncc3c(N)nc(-c4cncc(CCC(C)(C)N)c4)cc3c2cc1OC [Ib-257, 2-[5-(3-amino-3-methylbutyl)pyridin-3-yl]-8,9-dimethoxybenzo[c][2,7]naphthyridin-4-amine] | 29 |
| COc1cc2ncc3c(N)nc(N(C)Cc4cccnc4)cc3c2cc1OC [Ib-64, 8,9-dimethoxy-N^2-methyl-N^2-(pyridin-3-ylmethyl)benzo[c]-2,7-naphthyridine-2,4-diamine] | 3580 |
| COCCOc1cc2ncc3c(N)nc(N(C)CCOC)cc3c2cc1OC [Ia-54, 9-methoxy-8-(2-methoxyethoxy)-N^2-(2-methoxyethyl)-N^2-methylbenzo[c]-2,7-naphthyridine-2,4-diamine] | 2260 |
| COc1cc2ncc3c(N)nc(-c4cncc(OC[C@@H](N)COS(C)(=O)=O)c4)cc3c2cc1OC [Ib-7, (2R)-2-Amino-3-{[5-(4-amino-8,9-dimethoxybenzo[c]-2,7-naphthyridin-2-yl)pyridin-3-yl]oxy}propyl methanesulfonate] | 16 |
| COc1cc2ncc3c(N)nc(-c4cncc(Nc5ccccc5N5CCOCC5)c4)cc3c2cc1OC [Ib-184b, 8,9-dimethoxy-2-{5-[(2-morpholin-4-ylphenyl)amino]pyridin-3-yl}benzo[c][2,7]naphthyridin-4-amine] | 74 |
| COc1cc2ncc3c(N)nc(-c4cncc(OC[C@@H](N)CNc5nccc(C)n5)c4)cc3c2cc1OC [Ib-113, (2S)-3-{[5-(4-amino-8,9-dimethoxybenzo[c][2,7]naphthyridin-2-yl)pyridin-3-yl]oxy}-N1-(4-methylpyrimidin-2-yl)propane-1,2-diamine] | 20 |
| COc1cc2ncc3c(N)nc(-c4cncc(Nc5ccccc5Nc5ccccc5)c4)cc3c2cc1OC [Ib-183, N-[5-(4-amino-8,9-dimethoxybenzo[c][2,7]naphthyridin-2-yl)pyridin-3-yl]-N′-phenylbenzene-1,2-diamine] | 505 |
| COCCOc1cc2ncc3c(N)nc(N(C)CC4OCCO4)cc3c2cc1OC [Ia-44, N^2-(1,3-dioxolan-2-ylmethyl)-9-methoxy-8-(2-methoxyethoxy)-N^2-methylbenzo[c]-2,7-naphthyridine-2,4-diamine] | 2680 |
| COc1cc2ncc3c(N)nc(-c4cncc(Nc5cccc(CO)c5)c4)cc3c2cc1OC [Ib-195, (3-{[5-(4-amino-8,9-dimethoxybenzo[c][2,7]naphthyridin-2-yl)pyridin-3-yl]amino}phenyl)methanol] | 67 |
| COc1cc2ncc3c(NO)nc(-c4cncc(OC[C@@H](N)Cc5cccc(Cl)c5)c4)cc3c2cc1OC [Compound I-2, 2-(5-{[(2S)-2-amino-3-(3-chlorophenyl)propyl]oxy}pyridin-3-yl)-N-hydroxy-8,9-dimethoxybenzo[c]-2,7-naphthyridin-4-amine] | > 100 |
| COc1cc2ncc3c(N)nc(-c4cncc(OC[C@@H](N)Cc5ccc(N)cc5)c4)cc3c2cc1OC [Ib-19, 2-(5-{[(2S)-2-amino-3-(4-aminophenyl)propyl]oxy}pyridin-3-yl)-8,9-dimethoxybenzo[c]-2,7-naphthyridin-4-amine] | 81 |
| COc1cc2ncc3c(N)nc(-c4cncc(OC[C@@H](N)CNC5CCC5)c4)cc3c2cc1OC [Ib-100, (2S)-3-{[5-(4-amino-8,9-dimethoxybenzo[c][2,7]naphthyridin-2-yl)pyridin-3-yl]oxy}-N1-cyclobutylpropane-1,2-diamine] | 63 |
